Earlier results in patent US20260108515A1, “A RAPIDLY DISINTEGRATING TABLET OF ROSUVASTATIN AND ITS PROCESS OF PREPARATION” (NOVUMGEN LIMITED, priority 2022, published 2026).

Experiments:
[1] = in vivo
[2] = system: high-density lipoprotein—Cholesterol; details: patients with raised triglyceride levels
[3] = high permeability and low solubility
[4] = molecular target: CYP3A4 (Homo sapiens, UniProt P08684)
Chain of CYP3A4 (P08684 whole entry): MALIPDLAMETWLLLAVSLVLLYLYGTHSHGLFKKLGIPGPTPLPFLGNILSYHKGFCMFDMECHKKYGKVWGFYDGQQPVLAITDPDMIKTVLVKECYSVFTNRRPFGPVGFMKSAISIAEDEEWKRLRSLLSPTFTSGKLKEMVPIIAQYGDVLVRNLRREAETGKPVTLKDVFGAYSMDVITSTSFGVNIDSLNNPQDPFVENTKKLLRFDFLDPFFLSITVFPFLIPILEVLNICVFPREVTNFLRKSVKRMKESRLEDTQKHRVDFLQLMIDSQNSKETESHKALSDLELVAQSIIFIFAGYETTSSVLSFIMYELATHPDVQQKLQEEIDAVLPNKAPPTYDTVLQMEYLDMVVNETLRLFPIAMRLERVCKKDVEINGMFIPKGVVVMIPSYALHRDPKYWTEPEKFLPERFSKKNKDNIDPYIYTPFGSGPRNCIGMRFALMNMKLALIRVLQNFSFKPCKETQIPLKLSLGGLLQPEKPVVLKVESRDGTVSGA

## CC(C)c1nc(N(C)S(C)(=O)=O)nc(-c2ccc(F)cc2)c1/C=C/[C@@H](O)C[C@@H](O)CC(=O)O [Rosuvastatin, (E,3R,5S)-7-[4-(4-fluorophenyl)-2-[methyl(methylsulfonyl)amino]-6-propan-2-ylpyrimidin-5-yl]-3,5-dihydroxyhept-6-enoic acid]
[1]
  plasma half-life: 18 to 24 h
[2]
  raises high-density lipoprotein—Cholesterol: 15-20%
[3]
  biopharmaceutics classification system (BCS) class: class II
[4]
  metabolizing isoenzyme: metabolized primarily by CYP3A4
